According to patent US4652548A (Eli Lilly and Company, priority 1984, dated 1987):

Key:
[1] = test system: fasting Type II diabetic patients; test: Subcutaneous administration to fasting Type II diabetic patients: plasma glucose; format: in vivo, human
[2] = test system: HGO
Text: For example, in non-insulin dependent diabetes mellitus (NIDDM), one of the major metabolic abnormalities that maintains the resultant hyperglycemic state is accelerated hepatic glucose production.

[3] = five Type II subjects, 0.2 U/kg s.c.
[4] = test system: insulin-degrading proteases; conditions: subcutaneous injection site

human proinsulin: human proinsulin, available by organic synthesis, isolation from human pancreas or recombinant DNA methodology
Plasma Glucose ([1]; subject one, total dose 14.8 I.U. (0.2 U/kg s.c.), 0 min after injection): 213 mg/dL | Plasma Glucose ([1]; subject one, total dose 14.8 I.U. (0.2 U/kg s.c.), 40 min after injection): 203 mg/dL | Plasma Glucose ([1]; subject one, total dose 14.8 I.U. (0.2 U/kg s.c.), 80 min after injection): 187 mg/dL | Plasma Glucose ([1]; subject one, total dose 14.8 I.U. (0.2 U/kg s.c.), 160 min after injection): 140 mg/dL | Plasma Glucose ([1]; subject one, total dose 14.8 I.U. (0.2 U/kg s.c.), 240 min after injection): 81 mg/dL | Plasma Glucose ([1]; subject one, total dose 14.8 I.U. (0.2 U/kg s.c.), 280 min after injection): 77 mg/dL | Plasma Glucose ([1]; subject one, total dose 14.8 I.U. (0.2 U/kg s.c.), 300 min after injection): 80 mg/dL | Plasma Glucose ([1]; subject one, total dose 14.8 I.U. (0.2 U/kg s.c.), 320 min after injection): 80 mg/dL | Plasma Glucose ([1]; subject three, total dose 27.2 I.U. (0.2 U/kg s.c.), 0 min after injection): 159 mg/dL | Plasma Glucose ([1]; subject three, total dose 27.2 I.U. (0.2 U/kg s.c.), 40 min after injection): 144 mg/dL | Plasma Glucose ([1]; subject three, total dose 27.2 I.U. (0.2 U/kg s.c.), 120 min after injection): 128 mg/dL | Plasma Glucose ([1]; subject three, total dose 27.2 I.U. (0.2 U/kg s.c.), 200 min after injection): 110 mg/dL | Plasma Glucose ([1]; subject three, total dose 27.2 I.U. (0.2 U/kg s.c.), 240 min after injection): 101 mg/dL | Plasma Glucose ([1]; subject three, total dose 27.2 I.U. (0.2 U/kg s.c.), 280 min after injection): 98 mg/dL | Plasma Glucose ([1]; subject three, total dose 27.2 I.U. (0.2 U/kg s.c.), 300 min after injection): 88 mg/dL | Plasma Glucose ([1]; subject three, total dose 27.2 I.U. (0.2 U/kg s.c.), 360 min after injection): 84 mg/dL | Plasma Glucose ([1]; subject three, total dose 27.2 I.U. (0.2 U/kg s.c.), 400 min after injection): 85 mg/dL | Plasma Glucose ([1]; subject three, total dose 27.2 I.U. (0.2 U/kg s.c.), 440 min after injection): 86 mg/dL | Plasma Glucose ([1]; subject three, total dose 27.2 I.U. (0.2 U/kg s.c.), 480 min after injection): 88 mg/dL | Plasma Glucose ([1]; subject two, total dose 20.0 I.U. (0.2 U/kg s.c.), 0 min after injection): 231 mg/dL | Plasma Glucose ([1]; subject two, total dose 20.0 I.U. (0.2 U/kg s.c.), 40 min after injection): 217 mg/dL | Plasma Glucose ([1]; subject two, total dose 20.0 I.U. (0.2 U/kg s.c.), 80 min after injection): 201 mg/dL | Plasma Glucose ([1]; subject two, total dose 20.0 I.U. (0.2 U/kg s.c.), 120 min after injection): 191 mg/dL | Plasma Glucose ([1]; subject two, total dose 20.0 I.U. (0.2 U/kg s.c.), 160 min after injection): 182 mg/dL | Plasma Glucose ([1]; subject two, total dose 20.0 I.U. (0.2 U/kg s.c.), 240 min after injection): 164 mg/dL | Plasma Glucose ([1]; subject two, total dose 20.0 I.U. (0.2 U/kg s.c.), 280 min after injection): 143 mg/dL | Plasma Glucose ([1]; subject two, total dose 20.0 I.U. (0.2 U/kg s.c.), 300 min after injection): 134 mg/dL | Plasma Glucose ([1]; subject two, total dose 20.0 I.U. (0.2 U/kg s.c.), 360 min after injection): 128 mg/dL | Plasma Glucose ([1]; subject two, total dose 20.0 I.U. (0.2 U/kg s.c.), 400 min after injection): 117 mg/dL | Plasma Glucose ([1]; subject two, total dose 20.0 I.U. (0.2 U/kg s.c.), 440 min after injection): 112 mg/dL | Plasma Glucose ([1]; subject two, total dose 20.0 I.U. (0.2 U/kg s.c.), 480 min after injection): 104 mg/dL | Plasma Glucose ([1]; subject two, total dose 20.0 I.U. (0.2 U/kg s.c.), 500 min after injection): 100 mg/dL | Plasma Glucose ([1]; subject, total dose 15.0 I.U. (0.2 U/kg s.c.), 0 min after injection): 332 mg/dL | Plasma Glucose ([1]; subject, total dose 15.0 I.U. (0.2 U/kg s.c.), 40 min after injection): 328 mg/dL | Plasma Glucose ([1]; subject, total dose 15.0 I.U. (0.2 U/kg s.c.), 80 min after injection): 308 mg/dL | Plasma Glucose ([1]; subject, total dose 15.0 I.U. (0.2 U/kg s.c.), 120 min after injection): 288 mg/dL | Plasma Glucose ([1]; subject, total dose 15.0 I.U. (0.2 U/kg s.c.), 160 min after injection): 272 mg/dL | Plasma Glucose ([1]; subject, total dose 15.0 I.U. (0.2 U/kg s.c.), 200 min after injection): 247 mg/dL | Plasma Glucose ([1]; subject, total dose 15.0 I.U. (0.2 U/kg s.c.), 240 min after injection): 210 mg/dL | Plasma Glucose ([1]; subject, total dose 15.0 I.U. (0.2 U/kg s.c.), 280 min after injection): 174 mg/dL | Plasma Glucose ([1]; subject, total dose 15.0 I.U. (0.2 U/kg s.c.), 360 min after injection): 94 mg/dL | Expected suppression of HGO in NIDDM subjects ([2]; circulating concentration approximately 1.5-2 pmol/ml): approximately 50% | Expected duration of adequate glycemic control ([2]; sustained level 1.5-2 pmol/ml for about 3 hours by CSII or single s.c. injection): 8 to 10 h | Mean peak hormone blood level [3]: 6.8 pmol/mL | Time of mean peak hormone blood level [3]: 230 ± 33 min | Degradation by insulin-degrading proteases [4]: not degraded
